One may read the pIC50 as the negative decadic logarithm of the IC50, by convention in mol/L.

Type in all cases: cell-based
The test system of test [1] is SKBr3 and MCF-7 cell lines. Nature of the test: Anti-proliferative activity against both breast cancer cell lines (results in words). Particulars: SKBr3 and MCF-7, Tables 1-5. Here is the method: (§1) Cells were maintained in a 1:1 mixture of Advanced DMEM/F12 (Gibco) supplemented with non-essential amino acids, L-glutamine (2 mM), streptomycin (500 μg/mL), penicillin (100 units/mL), and 10% FBS. Cells were grown to confluence in a humidified atmosphere (37° C., 5% CO2), seeded (2000/well, 100 μL) in 96-well plates, and allowed to attach overnight. Compound at varying concentrations in DMSO (1% DMSO final concentration) was added, and cells were returned to the incubator for 72 h. At 72 h, the number of viable cells was determined using an MTS/PMS cell proliferation kit (Promega) per the manufacturer's instructions. Cells incubated in 1% DMSO were used at 100% proliferation, and values were adjusted accordingly. IC50 values were calculated from separate experiments performed in triplicate using GraphPad Prism.
The anti-proliferative activity of these compounds is evaluated against two breast cancer cell lines, SKBr3 (estrogen receptor negative, Her2 over-expressing breast cancer cells) and MCF-7 (estrogen receptor positive breast cancer cells).

Test [2] concerns SKBr3 (estrogen receptor negative, Her2 over-expressing breast cancer cells). Nature of the test: Anti-proliferation assay (MTS/PMS, 72 h), SKBr3. Particulars: Table 6, substituted phenyl ureas, Breast Cancer, read-out: IC50 SKBr3.
For test [3], the system named is MCF-7 (estrogen receptor positive breast cancer cells). Nature of the test: Anti-proliferation assay (MTS/PMS, 72 h), MCF-7. As to conditions: Table 6, substituted phenyl ureas, Breast Cancer, read-out: IC50 MCF-3.
The subject of test [4] is HCT-116. Nature of the test: Anti-proliferation assay, HCT-116. Particulars: Table 6, substituted phenyl ureas. As to the method:
as §1

Test [5] deals with PC-3. Nature of the test: Anti-proliferation assay, PC-3. As to conditions: Table 6, substituted phenyl ureas, Prostate Cancer. Here is the method: as §1
Test [6] relates to A-549. Nature of the test: Anti-proliferation assay, A-549. Particulars: Table 6, substituted phenyl ureas. Here is the method:
as §1

The test system of test [7] is MDA1986. Nature of the test: Anti-proliferation assay, MDA1986. As to conditions: Table 6, substituted phenyl ureas, HSNCC. Here is the method: as §1
The subject of test [8] is JMAR. Nature of the test: Anti-proliferation assay, JMAR. Particulars: Table 6, substituted phenyl ureas, HSNCC. Here is the method: as §1
Test [9] concerns MDAMB231. Nature of the test: Anti-proliferation assay, MDAMB231. Particulars: Table 6, substituted phenyl ureas, Tri-Neg. As to the method:
as §1

The subject of test [10] is DRO81-1. Nature of the test: Anti-proliferation assay, DRO81-1. Particulars: Table 6, substituted phenyl ureas; Thyroid. Here is the method:
as §1

Test [11] has as its system MRC5. Nature of the test: Anti-proliferation assay, MRC5 (normal). Here is the method:
as §1

Test [12] has as its system HMLE. Nature of the test: Anti-proliferation assay, HMLE (normal). Particulars: Table 6, substituted phenyl ureas. As to the method: as §1
The mark [13] stands for this setting: Homo sapiens, MRC5, Table 6, substituted phenyl ureas.

SMILES strings stand for the structures. pIC50: −log10 of the molar value. Read-outs that look alike come from different tables or passages of the source.

As for `CC(C)=CCc1cc(C(=O)Nc2cc3ccc(OCCCN4CCN(C)CC4)c(C)c3oc2=O)ccc1O` [Compound 62, 4-hydroxy-N-(8-methyl-7-(3-(4-methylpiperazin-1-yl)propoxy)-2-oxo-2H-chromen-3-yl)-3-(3-methylbut-2-en-1-yl)benzamide], the “anti-proliferative activity (in words)” value in test [1] is given as “maintain activity comparable to the N-methylpiperidine derivative”.
`CC(C)=CCc1cc(C(=O)Nc2cc3ccc(OCCCN4CCOCC4)c(C)c3oc2=O)ccc1O` [Compound 64, 4-hydroxy-N-(8-methyl-7-(3-morpholinopropoxy)-2-oxo-2H-chromen-3-yl)-3-(3-methylbut-2-en-1-yl)benzamide]: the “anti-proliferative activity (in words)” value in test [1] is “inactive at the highest concentrations tested”.
Same read-out and setting: then `CC(C)=CCc1cc(C(=O)Nc2cc3ccc(OCCCN4CCCCC4)c(C)c3oc2=O)ccc1O` [Compound 65, 4-hydroxy-N-(8-methyl-2-oxo-7-(3-(piperidin-1-yl)propoxy)-2H-chromen-3-yl)-3-(3-methylbut-2-en-1-yl)benzamide], with “inactive at the highest concentrations tested”.
With `Cc1c(OC2CCN(C)CC2)ccc2cc(NC(=O)Nc3ccc(C(F)(F)F)cc3)c(=O)oc12` [p-CF3, 1-(8-methyl-7-((1-methylpiperidin-4-yl)oxy)-2-oxo-2H-chromen-3-yl)-3-(4-(trifluoromethyl)phenyl)urea], the pIC50 is 6.46 in [2] (Homo sapiens, SK-BR-3); 6.33 in test [3] (Homo sapiens, MCF7); 6.10 in test [4] (Homo sapiens, HCT-116); 7.22 in test [5] (Homo sapiens, PC-3); 6.89 in test [6] (Homo sapiens, A549); 6.05 in [7] (MDA1986). Also, the pIC50 in [8] (JMAR) was 5.44; in [9] (Homo sapiens, MDA-MB-231) it was 6.37; in test [10], 6.19; in test [11] (setting [13]), 5.51; in [12] (HMLE), 4.81.
In the case of `Cc1ccc(NC(=O)Nc2cc3ccc(OC4CCN(C)CC4)c(C)c3oc2=O)cc1` [p-CH3, 1-(8-methyl-7-((1-methylpiperidin-4-yl)oxy)-2-oxo-2H-chromen-3-yl)-3-(p-tolyl)urea], the negative logarithm of the IC50 (pIC50) in test [2] (Homo sapiens, SK-BR-3) is 6.57; in test [3] (Homo sapiens, MCF7), 6.54; in test [4] (Homo sapiens, HCT-116), 7.23; in test [5] (Homo sapiens, PC-3), 6.09; in test [6] (Homo sapiens, A549), 7.77; in test [7] (MDA1986), 5.49. The pIC50 was 5.46 in test [8] (JMAR); 6.04 in test [9] (Homo sapiens, MDA-MB-231); 4.79 in test [10]; 5.18 in test [11] (setting [13]); 5.48 in test [12] (HMLE).
For `Cc1c(OC2CCN(C)CC2)ccc2cc(NC(=O)Nc3ccc(C(C)C)cc3)c(=O)oc12` [p-CH(CH3)2, 1-(4-isopropylphenyl)-3-(8-methyl-7-((1-methylpiperidin-4-yl)oxy)-2-oxo-2H-chromen-3-yl)urea], the negative logarithm of the IC50 (pIC50) in test [2] (Homo sapiens, SK-BR-3) was 6.17; in test [3] (Homo sapiens, MCF7), 6.09; in test [4] (Homo sapiens, HCT-116) it was 5.97; in test [5] (Homo sapiens, PC-3) it was 6.89; in test [6] (Homo sapiens, A549), 6.80; in [7] (MDA1986), 5.95. Further, the pIC50 is 6.06 in test [8] (JMAR); 6.21 in [9] (Homo sapiens, MDA-MB-231); 6.52 in [10]; 5.72 in test [11] (setting [13]); 5.19 in [12] (HMLE).
Regarding `Cc1c(OC2CCN(C)CC2)ccc2cc(NC(=O)Nc3ccc(C#N)cc3)c(=O)oc12` [p-CN, 1-(4-cyanophenyl)-3-(8-methyl-7-((1-methylpiperidin-4-yl)oxy)-2-oxo-2H-chromen-3-yl)urea], the negative-log IC50 (pIC50) was 6.43 in test [2] (Homo sapiens, SK-BR-3); 6.37 in [3] (Homo sapiens, MCF7); 6.24 in test [4] (Homo sapiens, HCT-116); 7.32 in [5] (Homo sapiens, PC-3); 7.37 in [6] (Homo sapiens, A549); 5.79 in test [7] (MDA1986). Moreover, the pIC50 in test [8] (JMAR) is 5.43; in test [9] (Homo sapiens, MDA-MB-231), 6.36; in test [10], 6.55; in [11] (setting [13]), 5.24; in test [12] (HMLE) it was 5.40.
Regarding `CC(=O)c1ccc(NC(=O)Nc2cc3ccc(OC4CCN(C)CC4)c(C)c3oc2=O)cc1` [p-COCH3], the negative-log IC50 (pIC50) in [2] is 5.82; in test [3], 5.76; in test [4] it was 6.60; in test [5], 5.56; in [6], 6.62; in [7] it was 5.47. Also, the pIC50 in [8] was 4.92; in test [9] it was 6.12; in [10] it was 4.88; in test [11] (Table 6, substituted phenyl ureas), 5.11; in test [12], 5.10.
For `Cc1c(OC2CCN(C)CC2)ccc2cc(NC(=O)Nc3ccc(Cl)cc3)c(=O)oc12` [p-Cl, 1-(4-chlorophenyl)-3-(8-methyl-7-((1-methylpiperidin-4-yl)oxy)-2-oxo-2H-chromen-3-yl)urea], the negative-log IC50 (pIC50) was 6.77 in test [2] (Homo sapiens, SK-BR-3); 6.44 in test [3] (Homo sapiens, MCF7); 6.38 in test [4] (Homo sapiens, HCT-116); 5.64 in [5] (Homo sapiens, PC-3); 6.80 in [6] (Homo sapiens, A549); under 4.60 in test [7] (MDA1986). Moreover, the pIC50 is 5.21 in [8] (JMAR); under 4.60 in [9] (Homo sapiens, MDA-MB-231); 4.80 in test [10]; under 4.60 in test [11] (setting [13]); under 4.60 in [12] (HMLE).
Take `Cc1c(OC2CCN(C)CC2)ccc2cc(NC(=O)Nc3ccc(F)cc3)c(=O)oc12` [p-F, 1-(4-fluorophenyl)-3-(8-methyl-7-((1-methylpiperidin-4-yl)oxy)-2-oxo-2H-chromen-3-yl)urea]: the pIC50 is 6.32 in test [2] (Homo sapiens, SK-BR-3); 6.02 in test [3] (Homo sapiens, MCF7); 7.21 in test [4] (Homo sapiens, HCT-116); 5.48 in [5] (Homo sapiens, PC-3); 5.97 in test [6] (Homo sapiens, A549); 8.00 in test [7] (MDA1986). Further, the negative-log IC50 (pIC50) in test [8] (JMAR) was 5.07; in test [9] (Homo sapiens, MDA-MB-231), 7.30; in [10], 4.70; in [11] (setting [13]) it was under 4.60; in [12] (HMLE) it was under 4.60.
In the case of `Cc1c(OC2CCN(C)CC2)ccc2cc(NC(=O)Nc3ccc([N+](=O)[O-])cc3)c(=O)oc12` [p-NO2, 1-(8-methyl-7-((1-methylpiperidin-4-yl)oxy)-2-oxo-2H-chromen-3-yl)-3-(4-nitrophenyl)urea], the pIC50 in test [2] (Homo sapiens, SK-BR-3) is 6.24; in test [3] (Homo sapiens, MCF7), 5.37; in [4] (Homo sapiens, HCT-116), 5.55; in [5] (Homo sapiens, PC-3), 5.97; in test [6] (Homo sapiens, A549) it was 6.02; in test [7] (MDA1986), 5.18. Besides, the pIC50 was 5.14 in test [8] (JMAR); 5.68 in test [9] (Homo sapiens, MDA-MB-231); 4.94 in [10]; under 4.60 in test [11] (setting [13]); under 4.60 in test [12] (HMLE).
For the compound `COc1ccc(NC(=O)Nc2cc3ccc(OC4CCN(C)CC4)c(C)c3oc2=O)cc1` [p-OCH3, 1-(4-methoxyphenyl)-3-(8-methyl-7-((1-methylpiperidin-4-yl)oxy)-2-oxo-2H-chromen-3-yl)urea], the pIC50 was 6.07 in test [2] (Homo sapiens, SK-BR-3); 6.02 in [3] (Homo sapiens, MCF7); 6.60 in test [4] (Homo sapiens, HCT-116); 6.28 in [5] (Homo sapiens, PC-3); 5.96 in test [6] (Homo sapiens, A549); 5.59 in [7] (MDA1986). The pIC50 in [8] (JMAR) was 5.08; in test [9] (Homo sapiens, MDA-MB-231), 5.62; in [10], 4.54; in test [11] (setting [13]), 5.57; in test [12] (HMLE), 6.13.
Turning to `Cc1c(OC2CCN(C)CC2)ccc2cc(NC(=O)Nc3ccc(Oc4ccccc4)cc3)c(=O)oc12` [p-phenoxyl, 1-(8-methyl-7-((1-methylpiperidin-4-yl)oxy)-2-oxo-2H-chromen-3-yl)-3-(4-phenoxyphenyl)urea], the negative-log IC50 (pIC50) in test [2] (Homo sapiens, SK-BR-3) is 6.40; in test [3] (Homo sapiens, MCF7), 6.15; in test [4] (Homo sapiens, HCT-116) it was 6.62; in test [5] (Homo sapiens, PC-3), 6.82; in [6] (Homo sapiens, A549) it was 6.74; in test [7] (MDA1986) it was 5.22. The pIC50 in test [8] (JMAR) was 5.28; in test [9] (Homo sapiens, MDA-MB-231) it was 5.66; in test [10] it was 5.74; in test [11] (setting [13]), 4.95; in [12] (HMLE), under 4.60.
Take `Cc1c(OC2CCN(C)CC2)ccc2cc(NC(=O)Nc3ccc(-c4ccccc4)cc3)c(=O)oc12` [p-phenyl, 1-([1,1′-biphenyl]-4-yl)-3-(8-methyl-7-((1-methylpiperidin-4-yl)oxy)-2-oxo-2H-chromen-3-yl)urea]: the negative-log IC50 (pIC50) in test [2] (Homo sapiens, SK-BR-3) is 6.44; in test [3] (Homo sapiens, MCF7), 6.15; in test [4] (Homo sapiens, HCT-116), 6.82; in test [5] (Homo sapiens, PC-3), 7.28; in [6] (Homo sapiens, A549), 7.18; in test [7] (MDA1986), 6.07. For the same compound, the pIC50 was 6.03 in test [8] (JMAR); 6.43 in test [9] (Homo sapiens, MDA-MB-231); 6.57 in test [10]; 5.70 in test [11] (setting [13]); 5.44 in test [12] (HMLE).

Source of the values: patent US10030006B2, “Coumarin based Hsp90 inhibitors with urea and ether substituents” (University of Kansas, priority 2013, dated 2018).
